Measured values reported in patent US20230085362A1, “PYRIMIDINE COMPOUNDS AND USE THEREOF” (National Health Research Institutes, priority 2021, published 2023).
Read-outs that look alike come from different tables or passages of the source.

System: Primary DRG cells
Assay: Neurite outgrowth assay (group A), paclitaxel-induced neurotoxicity
Type: cell-based, C57BL/6 J mice
Settings: for neuroprotection against paclitaxel-induced neurotoxicity: 1 µM compound; for activity at 1 µM: Mus musculus, read-out: Neurite outgrowth (%); for Neurite outgrowth (%) A-B (extent of protection): difference between compound 1 µM + paclitaxel 0.05 µM and paclitaxel 0.05 µM alone
Description: Compounds of this invention were evaluated using the neurite outgrowth assay as described in Chen et al., Scientific Reports, 7, 45366, DOI: 10.1038/srep45366 (2017).
Cell culture. For primary culture, dorsal root ganglia (“DRG”) were removed from 7-weeks-old C57BL/6 J mice and digested with 0.1% collagenase (Sigma-Aldrich, St. Louis, MO) for 1 hour, followed by 0.25% trypsin treatment for 25 minutes. The dissociated neuron cultures were plated at a density of 2.5×10^4 cells per well in a 96 well optics plates (CLS3614; Sigma-Aldrich) precoated with 1 mg/mL poly-D-lysine (A-003-M; Sigma-Aldrich) for 3 hours. Primary DRG cells were grown in DMEM-F12 (11320033; Gibco®, ThermoFisher Scientific, Waltham, MA) supplemented with 10% fetal bovine serum (FBS, 26140079; Gibco®, ThermoFisher). These cells were maintained at 37° C. in an environment containing 5% CO2.
Neurite outgrowth assay (group A). Primary DRG cells were incubated with one of the Example 2 compounds at 1 µM for 24 hours, and then treated with 0.05 µM paclitaxel for another 24 hours. After the paclitaxel treatment, the primary DRG cells were washed by PBS and then fixed with 4% paraformaldehyde (PFA, P6148; Sigma-Aldrich) for 15 minutes. The DRG cells thus fixed were permeabilized by 0.05% Triton X-100 in PBS for 20 minutes and blocked with 3% bovine serum albumin (BSA; Sigma-Aldrich, USA) at room temperature for 1 hour. Subsequently, DRG cells were stained with rabbit anti-β III tubulin (1:600; Cell Signaling, USA) and mouse anti-NeuN monoclonal antibody (1:400; Millipore, USA) overnight at 4° C. The samples were then washed by PBS and reacted with secondary antibodies (Alexa-488 and Alexa-594 1:600; Invitrogen, CA) at room temperature for 1 hour. For image acquisition and analysis of DRG neurite outgrowth, images of stained cells were automatically acquired using 10X objective by Image Xpress Micro wide field fluorescent microscope (Molecular Devices, USA). A control was obtained following the same procedure except that the DRG cells were not treated with a compound or paclitaxel. Neurite outgrowth was measured as a percentage of outgrowth as compared to the control.
The difference between A and B indicates an extent of protection provided by the compound.

[1] = DRG cells, 1 µM compound 24 h then 0.05 µM paclitaxel 24 h, % of untreated control

Structure (SMILES)	neuroprotection against paclitaxel-induced neurotoxicity (0.05 µM paclitaxel)	activity at 1 µM [1]	Neurite outgrowth (%) A-B (extent of protection)	neurotoxicity to DRG neurite outgrowth (0.05 µM paclitaxel 24 h)	inhibition of DRG neurite outgrowth (0.05 µM paclitaxel, across experiments of Table 1)	activity at 1 µM (24 h)
COC(=O)CCOCCCn1cc(CNc2nc(NC3CCN(Cc4ccc(C#N)cc4)CC3)cc(N3CCOCC3)n2)nn1 [Compound 72]	neuroprotection was provided	45%	3%			
CC(O)Cn1cc(CNc2nc(NC3CCNCC3)cc(N3CCOCC3)n2)nn1 (stereo not drawn) [Compound 53]	neuroprotection was provided	47%	2%			
COCCCn1cc(CNc2nc(NC3CCN(CCC(=O)OC)CC3)cc(N3CCOCC3)n2)nn1 [Compound 62]	neuroprotection was provided	50%	3%			
COC(=O)CCCCC(=O)N1CCC(Nc2cc(N3CCOCC3)nc(NCc3cn(CCCOCCC(=O)OC)nn3)n2)CC1 [Compound 73]	neuroprotection was provided	45%	3%			
COC(=O)c1cccc(CNCCCn2cc(CNc3nc(NC4CCN(Cc5ccccc5)CC4)cc(N4CCOCC4)n3)nn2)c1 [Compound 21]	neuroprotection was provided	45%	3%			
CCCCC(=O)NCCCn1cc(CNc2nc(NC3CCN(CCP(=O)(O)O)CC3)cc(N3CCOCC3)n2)nn1 [Compound 28]	neuroprotection was provided	53%	3%			
CCn1nnc(CNc2nc(NC3CCN(CCC(=O)OC)CC3)cc(N3CCOCC3)n2)n1 [Compound 100]	neuroprotection was provided	52%	3%			
CCOC(=O)CNCCC(=O)N1CCC(Nc2cc(N3CCOCC3)nc(NCc3cn(CCCOCCC(=O)OC)nn3)n2)CC1 [Compound 74]	neuroprotection was provided	45%	3%			
COC(=O)CCOCCCn1cc(CNc2nc(NC3CCN(Cc4ccccc4)CC3)cc(N3CCOCC3)n2)nn1 [Compound 65]	neuroprotection was provided					
CC(=O)O[C@H]1C(=O)[C@@]2(C)[C@H]([C@H](OC(=O)c3ccccc3)[C@]3(O)C[C@H](OC(=O)[C@H](O)[C@@H](NC(=O)c4ccccc4)c4ccccc4)C(C)=C1C3(C)C)[C@]1(OC(C)=O)CO[C@@H]1C[C@@H]2O [paclitaxel, reference compound]				inhibiting neurite outgrowth	50%-69	
OCCCn1cc(CNc2cc(NC3CCNCC3)nc(NCc3cn(CCCO)nn3)n2)nn1 [Compound 108]	neuroprotection was provided		9%			41%
CC(C)NCCCn1cc(CNc2nc(NC3CCNCC3)cc(N3CCOCC3)n2)nn1 [Compound 18]	neuroprotection was provided	50%	3%			
O=P(O)(O)CCN1CCC(Nc2cc(N3CCOCC3)nc(NCc3cn(CCO)nn3)n2)CC1 [Compound 114]	neuroprotection was provided	55%	8%			
O=P(O)(O)CCN1CCC(Nc2cc(N3CCCCC3)nc(NCc3cn(CCCO)nn3)n2)CC1 [Compound 135]	neuroprotection was provided	56%	6%			
O=P(O)(O)CCN1CCC(Nc2cc(N3CCSCC3)nc(NCc3cn(CCCO)nn3)n2)CC1 [Compound 140]	neuroprotection was provided	54%	4%			
